From US20260053811A1, “METHODS OF TREATING HYPERTENSION IN OBESE SUBJECTS” (Mineralys Therapeutics, Inc., priority 2022, published 2026)

System: hypertensive subjects
Assay: Seated automated office blood pressure (AOBP) in randomized, placebo-controlled, dose-ranging study
Type: in vivo, human
Conditions: for Placebo-adjusted reduction in AOBP SBP, exploratory MMRM analysis by BMI: data not shown; for Mean (SD) Automated Office-Measured Systolic Blood Pressure at Wk 8 / Mean (SD) Change from Baseline at Week 8 in Automated Office-Measured Systolic Blood Pressure / Mean (SD) Automated Office-Measured Diastolic Blood Pressure at Wk 8 / Mean (SD) Change from Baseline at Week 8 in Automated Office-Measured Diastolic Blood Pressure: Part 1, 12.5 mg BID
Description: A randomized, double-blinded, placebo-controlled, dose-ranging, multicenter study was conducted to evaluate the effect of orally administered Compound A HBr on blood pressure for the treatment of hypertension in male and female subjects ≥18 years of age.
The study consists of two parts. For enrollment into Part 1 of the study, a subject's value of plasma renin activity (PRA) must be ≤1 ng/mL/h based on morning measurement. If the value of PRA >1 ng/mL/h based on morning measurement, then subjects may be eligible to enter Part 2 of the study.
For Part 1, 163 enrolled subjects ≥18 years of age were randomized into 6 equal treatment groups (1:1:1:1:1:1) to 12.5 mg BID, 25 mg BID, 12.5 mg QD, 50 mg QD, 100 mg QD, or placebo. After a review of interim clinical data, the 2 lowest dose levels (12.5 mg QD and 12.5 mg BID) were stopped for future randomization due to a lack of consistent meaningful reduction of blood pressure, but the patients randomized to that point remained in the study through completion. Thus, after the review of interim clinical data, subjects were randomized into 4 equal treatment groups (1:1:1:1) to 25 mg BID, 50 mg QD, 100 mg QD, or placebo.
For Part 2, 36 enrolled subjects ≥18 years of age were randomized (5:1) to either 100 mg QD Compound A HBr or placebo such that the Compound A HBr treatment group consisted of approximately 30 subjects and the placebo treatment group will consist of approximately 6 subjects.
Subjects orally administered the assigned study drug (Compound A HBr or placebo) according to the assigned dosing regimen for 8 weeks beginning on Study Day 1. All subjects in Part 1 (regardless of dosing group) received BID dosing to preserve the integrity of the blind; active drug is administered as the morning dose for all QD dose groups. Subjects returned to the research facility or were seen by the clinical investigator or approved home health care professional at the end of Study Weeks 1, 2, 3, 4, 5, 6, 7, and 8 (±2 days) for protocol-defined efficacy and safety assessments and procedures, assessment of adverse events (AEs), and confirmation of compliance with study drug usage. Subjects also completed a telephone visit and blood pressure (BP) check at home approximately 3 days post last dose of study drug. Subjects attended up to 14 full clinic visits, including a pre-Screening visit, a Screening/start of Placebo Run-in visit, a second visit during Placebo Run-in, a clinic visit to initiate the ABPM procedure, a Randomization visit, 8 weekly visits during double-blind treatment, and an end-of-study visit scheduled 4 weeks after the last study treatment for final efficacy and safety assessments.
An automated oscillometric sphygmomanometer device was used to measure the subjects' systolic and diastolic blood pressure in office after approximately 5 minutes of rest in the seated position.
The primary endpoint is the change in office-measured (mean of last 2 of 5 unattended measurements using an automated oscillometric sphygmomanometer device after approximately 5 minutes of rest in the seated position) systolic blood pressure (SBP) from baseline to the end of Study Week 8.
Secondary endpoints of this study were: • (a) Change in 24-hour ambulatory blood pressure monitoring (ABPM) parameters (systolic and diastolic) from baseline to the end of Study Week 7. • (b) Change in office-measured SBP from baseline to the end of Study Weeks 1, 2, 3, 4, 5, 6, and 7. • (c) Change in office-measured diastolic blood pressure (DBP) from baseline to the end of Study Weeks 1, 2, 3, 4, 5, 6, 7, and 8. • (d) Proportion of subjects who achieve office-measured BP of ≤130/80 mm Hg by the end of Study Week 8.

CC(=O)N[C@H]1CC[C@H](NC(=O)CN2CCN(c3nncc(-c4ccc(C)cc4)n3)CC2)CC1 [Compound A HBr]
Subjects with seated AOBP SBP/DBP ≤130/80 mmHg: No (100 mg QD, Week 8, Part 2, FAS): 14 (45.2) n (%) | Subjects with seated AOBP SBP/DBP ≤130/80 mmHg: Yes (100 mg QD, Week 8, Part 2, FAS): 17 (54.8) n (%) | Placebo-adjusted reduction in AOBP SBP, exploratory MMRM analysis by BMI (Part 1 50 mg QD cohort): −16.7 mmHg | Placebo-adjusted reduction in AOBP SBP, exploratory MMRM analysis by BMI (Part 1 100 mg QD cohort): −12.3 mmHg | Mean (SD) Automated Office-Measured Systolic Blood Pressure at Wk 8 (ACEi/ARB No): 131.50 (16.22) mmHg | Mean (SD) Change from Baseline at Week 8 in Automated Office-Measured Systolic Blood Pressure (ACEi/ARB No): −18.75 (21.77) mmHg | Mean (SD) Automated Office-Measured Systolic Blood Pressure at Wk 8 (ACEi/ARB Yes): 132.00 (12.59) mmHg | Mean (SD) Change from Baseline at Week 8 in Automated Office-Measured Systolic Blood Pressure (ACEi/ARB Yes): −12.47 (17.09) mmHg | Mean (SD) Automated Office-Measured Diastolic Blood Pressure at Wk 8 (ACEi/ARBs No): 76.25 (12.37) mmHg | Mean (SD) Change from Baseline at Week 8 in Automated Office-Measured Diastolic Blood Pressure (ACEi/ARBs No): −4.00 (8.79) mmHg | Mean (SD) Automated Office-Measured Diastolic Blood Pressure at Wk 8 (ACEi/ARBs Yes): 74.93 (9.86) mmHg | Mean (SD) Change from Baseline at Week 8 in Automated Office-Measured Diastolic Blood Pressure (ACEi/ARBs Yes): −6.33 (9.02) mmHg | Mean (SD) Automated Office-Measured Diastolic Blood Pressure at Wk 8 (AHTs 2): 79.67 (11.78) mmHg | Mean (SD) Automated Office-Measured Systolic Blood Pressure at Wk 8 (AHTs 2): 136.33 (11.76) mmHg | Mean (SD) Change from Baseline at Week 8 in Automated Office-Measured Diastolic Blood Pressure (AHTs 2): −5.25 (7.78) mmHg | Mean (SD) Change from Baseline at Week 8 in Automated Office-Measured Systolic Blood Pressure (AHTs 2): −8.33 (13.28) mmHg | Mean (SD) Automated Office-Measured Diastolic Blood Pressure at Wk 8 (AHTs ≥3): 73.15 (8.93) mmHg | Mean (SD) Automated Office-Measured Systolic Blood Pressure at Wk 8 (AHTs ≥3): 129.85 (13.37) mmHg | Mean (SD) Change from Baseline at Week 8 in Automated Office-Measured Diastolic Blood Pressure (AHTs ≥3): −6.12 (9.49) mmHg | Mean (SD) Change from Baseline at Week 8 in Automated Office-Measured Systolic Blood Pressure (AHTs ≥3): −16.31 (19.35) mmHg | Mean (SD) Automated Office-Measured Diastolic Blood Pressure at Wk 8 (Age 65-79 yr): 76.18 (7.87) mmHg | Mean (SD) Automated Office-Measured Systolic Blood Pressure at Wk 8 (Age 65-79 yr): 135.73 (11.26) mmHg | Mean (SD) Change from Baseline at Week 8 in Automated Office-Measured Diastolic Blood Pressure (Age 65-79 yr): −3.18 (7.91) mmHg | Mean (SD) Change from Baseline at Week 8 in Automated Office-Measured Systolic Blood Pressure (Age 65-79 yr): −12.77 (19.08) mmHg | Mean (SD) Automated Office-Measured Diastolic Blood Pressure at Wk 8 (Age <65 yr): 79.17 (9.58) mmHg | Mean (SD) Automated Office-Measured Systolic Blood Pressure at Wk 8 (Age <65 yr): 132.17 (11.13) mmHg | Mean (SD) Change from Baseline at Week 8 in Automated Office-Measured Diastolic Blood Pressure (Age <65 yr): −5.67 (5.02) mmHg | Mean (SD) Change from Baseline at Week 8 in Automated Office-Measured Systolic Blood Pressure (Age <65 yr): −6.92 (7.84) mmHg | Mean (SD) Automated Office-Measured Diastolic Blood Pressure at Wk 8 (Age ≥80 yr): 58.00 (7.07) mmHg | Mean (SD) Automated Office-Measured Systolic Blood Pressure at Wk 8 (Age ≥80 yr): 110.00 (1.41) mmHg | Mean (SD) Change from Baseline at Week 8 in Automated Office-Measured Diastolic Blood Pressure (Age ≥80 yr): −21.00 (9.90) mmHg | Mean (SD) Change from Baseline at Week 8 in Automated Office-Measured Systolic Blood Pressure (Age ≥80 yr): −40.00 (4.24) mmHg | Mean (SD) Automated Office-Measured Diastolic Blood Pressure at Wk 8 (BMI 25−30 kg/m^2): 71.75 (9.07) mmHg | Mean (SD) Change from Baseline at Week 8 in Automated Office-Measured Diastolic Blood Pressure (BMI 25−30 kg/m^2): −8.00 (7.56) mmHg | Mean (SD) Automated Office-Measured Diastolic Blood Pressure at Wk 8 (BMI <25 kg/m^2): 92.00 (NE) mmHg | Mean (SD) Change from Baseline at Week 8 in Automated Office-Measured Diastolic Blood Pressure (BMI <25 kg/m^2): 6.00 (NE) mmHg | Mean (SD) Automated Office-Measured Diastolic Blood Pressure at Wk 8 (BMI >30 kg/m^2): 75.00 (9.80) mmHg | Mean (SD) Change from Baseline at Week 8 in Automated Office-Measured Diastolic Blood Pressure (BMI >30 kg/m^2): −6.07 (9.01) mmHg | Mean (SD) Automated Office-Measured Systolic Blood Pressure at Wk 8 (BMI at baseline 25-30 kg/m^2): 125.50 (14.89) mmHg | Mean (SD) Change from Baseline at Week 8 in Automated Office-Measured Systolic Blood Pressure (BMI at baseline 25-30 kg/m^2): −23.88 (24.55) mmHg | Mean (SD) Automated Office-Measured Systolic Blood Pressure at Wk 8 (BMI at baseline <25 kg/m^2): 150.00 (NE) mmHg | Mean (SD) Change from Baseline at Week 8 in Automated Office-Measured Systolic Blood Pressure (BMI at baseline <25 kg/m^2): 2.50 (NE) mmHg | Mean (SD) Automated Office-Measured Systolic Blood Pressure at Wk 8 (BMI at baseline >30 kg/m^2): 132.43 (11.93) mmHg | Mean (SD) Change from Baseline at Week 8 in Automated Office-Measured Systolic Blood Pressure (BMI at baseline >30 kg/m^2): −12.07 (15.48) mmHg | Mean (SD) Automated Office-Measured Diastolic Blood Pressure at Wk 8 (Race Black or AA): 79.14 (8.49) mmHg | Mean (SD) Automated Office-Measured Systolic Blood Pressure at Wk 8 (Race Black or AA): 137.71 (13.50) mmHg
